Among the data in patent publication US20040176371A1, “Novel pyrazolopyrimidinethione derivatives, preparation methods thereof and their use as therapeutics for erectile dysfunction” (priority 2001, published 2004) are IC50 and minimal lethal dose values, retold here.

Data set [1] concerns the target phosphodiesterase III (PDE III). Nature of the data set: Inhibitory activity against phosphodiesterase III (method of Thompson and Appleman). It counts as biochemical. As to conditions: enzyme isolated from diaphragm kidney cortex of rat. Here is the method: (§1) In order to identify the effects of compounds of formula 1 according to the present invention on erectile dysfunction, inhibitory activities against phosphodiesterase V and other isozymes (I, III and VI) were evaluated in accordance with the following procedure.
(§2) Phosphodiesterases I, III and V were isolated from diaphragm kidney cortex of rat, phosphodiesterase VI was isolated from retina of rat. Inhibitory activities against the isolated enzymes were evaluated by the method of Thompson and Appleman (Thompson and Appleman, Biochemistry, 1971, 10, 311-316). A reaction mixture for enzyme activity [Total volume 100 μl: PDE enzymes (Column fraction 20˜40 μl), […] and 20 μl M calmodulin (10 μl addition for PDE I), [^3H]-cAMP, [^3H]-cGMP(1 μCi/μl), compound of formula 1 (0.01 nM˜1 μM), 50 mM Tris-HCl buffer solution (pH 7.4), 15 mM MgCl2, distilled water] was incubated in a water bath at 30° C. for 30 minutes, and then heat-denatured at 100° C. for 2 minutes to denature enzymes. After the reaction mixture was cooled down on ice, 250 μg/ml venom was added thereto. The resulting mixture was incubated at 30° C. for 10 minutes, and then 0.5 ml of cold d-H2O was added thereto to obtain a specimen. Guanine was separated from the specimen using an anion exchange resin (DEAE Sephacel A-25 anion exchange column). To measure the IC50 of specimen, radioactivity was counted by β-counter after treatment with 10 ml of scintillation cocktail solution.

Data set [2] concerns the target phosphodiesterase I (PDE I). Put plainly: Inhibitory activity against phosphodiesterase I (method of Thompson and Appleman). In kind it is biochemical. The following applies: enzyme isolated from diaphragm kidney cortex of rat. The method, then: as §1, §2
Data set [3] deals with T1, phosphodiesterase V (PDE V) (Rattus norvegicus, UniProt O54735).
T1 construct: Phosphodiesterases I, III and V were isolated from diaphragm kidney cortex of rat; from tissue; host or cells: rat 'diaphragm kidney cortex'
Nature of the data set: Inhibitory activity against phosphodiesterase V (method of Thompson and Appleman). In kind it is biochemical. As to conditions: enzyme isolated from diaphragm kidney cortex of rat. The method, then:
as §1
as §2, with “Inhibitory activities against the isolated enzymes were evaluated by the method of Thompson and Appleman (Thompson and Appleman, Biochemistry, 1971, 10, 311-316).” left out

The test system of another data set is ICR mice. Put plainly: Acute toxicity when administered orally to mouse. It counts as in vivo. The following applies: single oral administration, both male and female. Here is the method:
In order to evaluate the toxicity of the compounds of formula 1 according to the present invention, an experiment was performed as described below.
The compound prepared in the Example 5 was administered orally to four ICR mice (2 male, 2 female) once at a dose of 128, 320, 800, 2000 and 5000 mg/kg, respectively. 7 days after the administration, mortality rate, general symptoms, changes in weight, and autopsy results were recorded.

For `CCCc1nn(C)c2c(=S)[nH]c(-c3cc(S(=O)(=O)N4CCN(C)CC4)ccc3OCC)nc12` [Example 5, 5-[2-ethoxy-5-(4-methylpiperazine-1-sulfonyl)phenyl]-1-methyl-3-propyl-1,6-dihydropyrazolo[4,3-d]pyrimidine-7-thione], the concentration for half-maximal inhibition (IC50) amounted to 1250 nM in data set [1], 1890 nM in data set [2] and 0.59 nM in data set [3]. In the data set with ICR mice, the minimal lethal dose entry was “more than 5000 mg/kg”.
As to `CCCc1nn(C)c2c(=S)[nH]c(-c3cc(S(=O)(=O)N4CCN(CCO)CC4)ccc3OCC)nc12` [Example 7, 5-{2-ethoxy-5-[4-(2-hydroxyethyl)piperazine-1-sulfonyl]phenyl}-1-methyl-3-propyl-1,6-dihydropyrazolo[4,3-d]pyrimidine-7-thione], the results for the half-maximal inhibitory concentration (IC50) in data set [1], in data set [2] and in data set [3] were 3020 nM, 110 nM and 0.4 nM, respectively.
On to `CCCc1nn(C)c2c(=S)[nH]c(-c3cc(S(=O)(=O)N4CCNCC4)ccc3OCC)nc12` [Example 9, 5-[2-ethoxy-5-(piperazine-1-sulfonyl)phenyl]-1-methyl-3-propyl-1,6-dihydropyrazolo[4,3-d]pyrimidine-7-thione], for which the IC50 worked out at 5630 nM in data set [1], 2430 nM in data set [2] and 0.62 nM in data set [3].
For `CCCOc1ccc(S(=O)(=O)N2CCN(C)CC2)cc1-c1nc2c(CCC)nn(C)c2c(=S)[nH]1` [Example 10, 1-methyl-5-[5-(4-methylpiperazine-1-sulfonyl)-2-propoxyphenyl]-3-propyl-1,6-dihydropyrazolo[4,3-d]pyrimidine-7-thione] the same measures were 1030 nM, 620 nM and 0.58 nM.
As to `CCCOc1ccc(S(=O)(=O)N2CCN(CCO)CC2)cc1-c1nc2c(CCC)nn(C)c2c(=S)[nH]1` [Example 12, 5-{5-[4-(2-hydroxyethyl)piperazine-1-sulfonyl]-2-propoxyphenyl}-1-methyl-3-propyl-1,6-dihydropyrazolo[4,3-d]pyrimidine-7-thione], the IC50 in data set [1] was 1080 nM; in data set [2], 10 nM; in data set [3] it was 0.46 nM.
As for `CCCc1nn(C)c2c(=O)[nH]c(-c3cc(S(=O)(=O)N4CCN(C)CC4)ccc3OCC)nc12` [Sildenafil, reference compound], the IC50 came to 1750 nM in data set [1] and 2250 nM in data set [2].
